We go through two molecules from US20190060410A1, “Pharmaceutical Formulation Comprising GLP-1 Analogue and Preparation Method Thereof” (Hangzhou Jiuyuan Gene Engineering Co., Ltd., priority 2015, published 2019).

The conditions of data set [1]: patients, combined with metformin (Nauck et al.); cited from earlier work.
A short description of data set [2]: dissolution of liraglutide powder at different pHs. In kind it is physicochemical. As to the method:
Investigating the dissolution of liraglutide powder at different pHs
The appropriate amount of liraglutide powder was dissolved in the water for injection and the disodium hydrogen phosphate buffer at a different pH was added resulting in the dissolution shown in Table 1.

The conditions of data set [3]: following subcutaneous injection; cited from earlier work.
The conditions of data set [4]: cited from earlier work.

`CCC1=C(C)CN(C(=O)NCCc2ccc(S(=O)(=O)NC(=O)N[C@H]3CC[C@H](C)CC3)cc2)C1=O` [glimepiride]: the incidence of hypoglycemia in data set [1] was 17%.

On to “Arg^34, Lys^26 (N^ε-(γ-Glu (N^α-hexadecanoyl))) GLP-1 (7-37) [liraglutide]”, for which the Dissolution result in data set [2] (6 mg/ml liraglutide in water for injection) is recorded as “insoluble”; in data set [2] (6 mg/ml liraglutide, 10 mM disodium hydrogen phosphate buffer (pH 7.00)), “insoluble”; in data set [2] (6 mg/ml liraglutide, 10 mM disodium hydrogen phosphate buffer (pH 7.50)), “colorless”; in data set [2] (6 mg/ml liraglutide, 10 mM disodium hydrogen phosphate buffer (pH 8.00)) it was “colorless”; in data set [2] (6 mg/ml liraglutide, 10 mM disodium hydrogen phosphate buffer (pH 8.15)) it was “colorless”; in data set [2] (6 mg/ml liraglutide, 10 mM disodium hydrogen phosphate buffer (pH 8.50)), “colorless”. Besides, the Dissolution result in data set [2] (6 mg/ml liraglutide, 10 mM disodium hydrogen phosphate buffer (pH 9.00)) was “colorless”. Also, the “dissolution of liraglutide powder” value is listed as “didn't dissolve” in data set [2] (acidic and neutral conditions); “readily dissolved” in data set [2] (alkaline conditions). Besides, the plasma half-life in data set [3] was 13 h. The “reduction of systolic blood pressure” value in data set [4] (LEAD series clinical trials, patients) is listed as 2.7-6.7 mmHg. Besides, the “patients who reported nausea” value in data set [4] (LEAD-2 and LEAD-3 clinical trials) is below 10%. Also, in data set [1], the incidence of hypoglycemia result is recorded as “less than 3%”.
